The numbers were not newly measured in patent US9809589B2, “Crystal form of compound used as mineralocorticoid receptor antagonist and preparation method therefor” (KBP BIOSCIENCES CO., LTD., priority 2012, dated 2017), which cites them from elsewhere.

Series [1] has as its target T1, mineralocorticoid receptor (Homo sapiens, UniProt P08235).
T1 sequence (P08235 1-984): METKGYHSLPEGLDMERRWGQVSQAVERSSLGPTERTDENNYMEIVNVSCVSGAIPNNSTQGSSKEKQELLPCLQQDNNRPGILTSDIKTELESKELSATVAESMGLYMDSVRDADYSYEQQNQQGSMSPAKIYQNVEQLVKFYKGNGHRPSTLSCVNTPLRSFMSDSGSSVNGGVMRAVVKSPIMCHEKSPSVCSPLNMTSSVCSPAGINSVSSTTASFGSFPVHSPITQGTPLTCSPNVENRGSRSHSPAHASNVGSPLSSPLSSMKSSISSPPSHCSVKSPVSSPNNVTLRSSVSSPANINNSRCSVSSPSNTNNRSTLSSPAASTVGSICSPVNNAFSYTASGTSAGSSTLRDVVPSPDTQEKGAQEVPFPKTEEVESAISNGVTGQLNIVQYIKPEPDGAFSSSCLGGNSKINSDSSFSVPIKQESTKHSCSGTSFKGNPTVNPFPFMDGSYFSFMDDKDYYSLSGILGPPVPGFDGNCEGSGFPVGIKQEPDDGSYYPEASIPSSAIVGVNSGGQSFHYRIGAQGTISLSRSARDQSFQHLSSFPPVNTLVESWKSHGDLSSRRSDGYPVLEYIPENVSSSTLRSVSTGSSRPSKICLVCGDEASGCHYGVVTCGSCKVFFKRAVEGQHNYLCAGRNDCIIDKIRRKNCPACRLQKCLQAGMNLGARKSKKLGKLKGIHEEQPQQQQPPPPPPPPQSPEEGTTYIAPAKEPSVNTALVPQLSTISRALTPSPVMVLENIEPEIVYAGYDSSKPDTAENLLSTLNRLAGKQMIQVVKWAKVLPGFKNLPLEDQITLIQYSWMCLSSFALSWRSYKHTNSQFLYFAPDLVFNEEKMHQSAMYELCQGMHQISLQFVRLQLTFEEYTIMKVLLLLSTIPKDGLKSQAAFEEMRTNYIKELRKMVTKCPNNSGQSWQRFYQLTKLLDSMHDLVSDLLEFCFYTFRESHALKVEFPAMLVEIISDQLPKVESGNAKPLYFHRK
The following applies: as disclosed in WO2012022121; cited from earlier work.

For another series, the target named is T2, glucocorticoid receptor (Homo sapiens, UniProt P04150).
T2 sequence (P04150 1-777): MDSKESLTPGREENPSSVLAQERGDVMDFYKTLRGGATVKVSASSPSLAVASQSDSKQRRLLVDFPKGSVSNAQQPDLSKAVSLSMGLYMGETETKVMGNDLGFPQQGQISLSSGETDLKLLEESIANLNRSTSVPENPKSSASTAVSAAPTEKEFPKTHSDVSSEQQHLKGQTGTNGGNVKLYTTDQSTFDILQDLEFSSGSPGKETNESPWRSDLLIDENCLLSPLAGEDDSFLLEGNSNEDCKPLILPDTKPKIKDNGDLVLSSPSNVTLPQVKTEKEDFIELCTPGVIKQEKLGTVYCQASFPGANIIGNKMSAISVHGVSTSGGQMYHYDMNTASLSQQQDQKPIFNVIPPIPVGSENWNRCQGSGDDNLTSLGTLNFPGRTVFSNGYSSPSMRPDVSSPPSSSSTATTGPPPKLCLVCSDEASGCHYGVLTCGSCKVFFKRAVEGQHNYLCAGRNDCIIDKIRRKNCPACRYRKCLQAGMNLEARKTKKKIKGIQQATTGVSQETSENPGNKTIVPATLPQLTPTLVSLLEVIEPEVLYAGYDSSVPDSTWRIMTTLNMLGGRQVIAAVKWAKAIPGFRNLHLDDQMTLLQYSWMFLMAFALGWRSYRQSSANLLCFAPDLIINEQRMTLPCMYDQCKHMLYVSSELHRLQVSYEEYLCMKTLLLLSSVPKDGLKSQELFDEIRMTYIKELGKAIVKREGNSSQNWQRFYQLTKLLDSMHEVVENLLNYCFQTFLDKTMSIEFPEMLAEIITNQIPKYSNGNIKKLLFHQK
The following applies: relative to mineralocorticoid receptor; WO2012022121; cited from earlier work.

The target in another series is T3, androgen receptor (Homo sapiens, UniProt P10275).
T3 sequence (P10275 1-920): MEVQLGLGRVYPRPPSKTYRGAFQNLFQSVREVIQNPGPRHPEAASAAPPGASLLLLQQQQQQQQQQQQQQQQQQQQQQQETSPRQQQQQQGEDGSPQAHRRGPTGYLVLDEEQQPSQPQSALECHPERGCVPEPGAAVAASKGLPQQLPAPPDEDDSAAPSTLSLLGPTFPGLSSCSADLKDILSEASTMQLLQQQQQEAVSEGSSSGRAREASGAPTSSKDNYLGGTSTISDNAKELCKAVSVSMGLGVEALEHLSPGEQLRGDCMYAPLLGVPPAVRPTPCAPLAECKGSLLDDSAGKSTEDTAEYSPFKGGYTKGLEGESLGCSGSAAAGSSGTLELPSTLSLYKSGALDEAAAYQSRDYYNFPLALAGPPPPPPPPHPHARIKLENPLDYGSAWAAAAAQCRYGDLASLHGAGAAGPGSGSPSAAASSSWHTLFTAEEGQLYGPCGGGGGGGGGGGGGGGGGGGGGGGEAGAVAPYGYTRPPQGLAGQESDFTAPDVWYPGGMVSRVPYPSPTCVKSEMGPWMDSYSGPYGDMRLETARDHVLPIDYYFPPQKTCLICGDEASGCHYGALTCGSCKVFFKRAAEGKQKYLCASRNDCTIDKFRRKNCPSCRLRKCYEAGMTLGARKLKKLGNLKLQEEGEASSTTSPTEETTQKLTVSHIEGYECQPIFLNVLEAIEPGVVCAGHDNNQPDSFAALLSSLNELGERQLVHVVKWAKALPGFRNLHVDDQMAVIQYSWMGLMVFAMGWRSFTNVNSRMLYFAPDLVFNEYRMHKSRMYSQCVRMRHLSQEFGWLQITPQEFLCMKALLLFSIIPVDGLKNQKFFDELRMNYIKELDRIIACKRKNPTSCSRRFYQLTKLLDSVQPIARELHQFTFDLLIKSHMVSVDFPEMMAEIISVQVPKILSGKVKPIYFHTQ
The following applies: relative to mineralocorticoid receptor; WO2012022121; cited from earlier work.

Turning to `N#Cc1ccc(N2N=C3c4ccc(C(=O)N5CCC(O)CC5)nc4CC[C@@H]3[C@@H]2C2CCCC2)cc1Cl` [compound represented by Formula (1), 2-chloro-4-[(3S,3aR)-3-cyclopentyl-7-(4-hydroxypiperidin-1-carbonyl)-3,3a,4,5-tetrahydro-2H-pyrazolo[3,4-f]quinolin-2-yl]benzonitrile], in series [1], the “Binding to the mineralocorticoid receptor” value was “selectively bind to the mineralocorticoid receptor”. Also, on glucocorticoid receptor, the “Affinity to the glucocorticoid receptor” value is recorded as “lower affinity”. For the same molecule, the “Affinity to the androgen receptor” value at androgen receptor was “lower affinity”.
